Columns and labels:
[1] = tested on: THP-1 cells (TNFα secretion on human IgG-coated plate); assay: TNFα generation assay; assay type: cell-based; conditions: IFN-γ differentiated THP-1 cells, 7 hours, AlphaLISA, read-out: IC50 of TNFα generation inhibitory activity
Outline: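 THP-1 cells were differentiated with 10 ng/ml IFN-γ for 2 days, then preincubated with compound for 30 min at room temperature. They were then plated at 5×10^4 cells/well on plates coated with human IgG (10 μg/ml). TNFα secreted over 7 h of culture was quantified by AlphaLISA.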

[2] = tested on: THP-1 cells (phagocytosis of opsonized Escherichia coli); assay: Antibody-dependent phagocytosis assay; assay type: cell-based; conditions: Homo sapiens; IFNγ differentiated THP-1 cells, opsonized pHrodo Escherichia coli, 3 hours; read-out: IC50 upon phagocytosis inhibition
Method: THP-1 cells (2×10^5 cells/ml), which were human monocytoid cells, were cultured in the presence of 10 ng/ml IFNγ for 2 days, and they were induced to differentiate into macrophage-like cells. The differentiation-induced THP-1 cells were recovered, and the cells (5×10^4 cells/well) were then allowed to react with a predetermined concentration of test compound at room temperature for 30 minutes. Thereafter, Escherichia coli (Life Technologies) labeled with a pH-sensitive dye (pHrodo) was subjected to opsonization using an anti-Escherichia coli antibody (Life Technologies). Then, the resultant was added to the THP-1 cells obtained above, followed by incubation at 37° C. for 3 hours. Opsonized Escherichia coli and cell-permeable fluorescent dye (Calcein AM) were simultaneously added thereto, followed by quantitative determination of phagocytosis of opsonized Escherichia coli in viable cells using an IN Cell Analyzer.

[3] = target: T1, glutathione S-transferase (GST)-linked full-length human Syk protein (Homo sapiens, UniProt P43405); assay: Syk enzyme assay; assay type: biochemical; conditions: 0.83 nM Syk, time-resolved fluorescence; read-out: IC50 of Syk-inhibitory activity
T1 construct: glutathione S-transferase (GST)-linked full-length human Syk protein; purchased Carna Biosciences; host or cells: Baculovirus expression system
Outline: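 Phosphotyrosine on a biotin-peptide substrate (0.5 μM) was read by time-resolved fluorescence at 615 and 665 nm with Eu-anti-pTyr antibody and APC-streptavidin after 1 h EDTA stop.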

SMILES | IC50 [1] [nM] | IC50 [2] [nM] | IC50 [3] [nM]
CC[C@@H](Nc1nc(Nc2ccc3c(c2)c(N(C)C)nn3C)c(C(N)=O)cc1F)[C@H](C)N [Example 2-4] | 65 to 130 | 1000 to 3000 | < 10
CC[C@@H](Nc1nc(Nc2cnc(C)c(C)c2)c(C(N)=O)cc1F)[C@H](C)N [Example 2-17, 6-(((2S,3R)-2-aminopentan-3-yl)amino)-2-((5,6-dimethylpyridin-3-yl)amino)-5-fluoronicotinamide] | 65 to 130 | < 1000 | < 10
C[C@H](N)[C@@H](CC1CC1)Nc1nc(Nc2cccc3c2cnn3CC(F)F)c(C(N)=O)cc1F [Example 2-21, 6-(((2R,3S)-3-amino-1-cyclopropylbutan-2-yl)amino)-2-((1-(2,2-difluoroethyl)-1H-indazol-4-yl)amino)-5-fluoronicotinamide] | 130 to 200 | < 1000 | < 10
CC(C)C[C@@H](Nc1nc(Nc2cccc3c2cnn3CC(F)F)c(C(N)=O)cc1F)[C@H](C)N [Example 2-22, 6-(((2S,3R)-2-amino-5-methylhexan-3-yl)amino)-2-((1-(2,2-difluoroethyl)-1H-indazol-4-yl)amino)-5-fluoronicotinamide] | 130 to 200 | < 1000 | < 10
CC[C@@H](Nc1nc(Nc2cccc3c2cnn3CC(F)F)c(C(N)=O)cc1F)[C@H](C)N [Example 2-23, 6-(((2S,3R)-2-aminopentan-3-yl)amino)-2-((1-(2,2-difluoroethyl)-1H-indazol-4-yl)amino)-5-fluoronicotinamide] | 65 to 130 | < 1000 | < 10
CC[C@@H](Nc1nc(Nc2cnc(C)c(-n3nccn3)c2)c(C(N)=O)cc1F)[C@H](C)N [Example 2-31, 6-(((2S,3R)-2-aminopentan-3-yl)amino)-5-fluoro-2-((6-methyl-5-(2H-1,2,3-triazol-2-yl)pyridin-3-yl)amino)nicotinamide] | 65 to 130 | < 1000 | < 10
CC[C@H](N)[C@@H](CC)Nc1nc(Nc2cnc(C)c(C)c2)c(C(N)=O)cc1F [Example 2-36, 6-(((3R,4S)-4-aminohexan-3-yl)amino) 2-((5,6-dimethylpyridin-3-yl)amino)-5-fluoronicotinamide] | 130 to 200 | 1000 to 3000 | 10 to 50
CC[C@H](N)[C@@H](C)Nc1nc(Nc2ccc3c(cnn3C)c2)c(C(N)=O)cc1F [Example 2-40, 6-(((2R,3S)-3-aminopentan-2-yl)amino)-5-fluoro-2-((1-methyl-1H-indazol-5-yl)amino)nicotinamide] | < 65 | < 1000 | < 10
CCn1ncc2c(Nc3nc(N[C@H](COC)[C@H](C)N)c(F)cc3C(N)=O)cncc21 [Example 2-323, 6-(((2S,3S)-3-amino-1-methoxybutan-2-yl)amino)-2-((1-ethyl-1H-pyrazolo[3,4-c]pyridin-4-yl)amino)-5-fluoronicotinamide] | – | 1000 to 3000 | 10 to 50
CCOC[C@@H](Nc1nc(Nc2cncc3c2cnn3CC)c(C(N)=O)cc1F)[C@H](C)N [Example 2-324, 6-(((2S,3S)-3-amino-1-ethoxybutan-2-yl)amino)-2-((1-ethyl-1H-pyrazolo[3,4-c]pyridin-4-yl)amino)-5-fluoronicotinamide] | – | < 1000 | 10 to 50
COc1ccc([C@@H](Nc2nc(Nc3cnc(C)c(-n4nccn4)c3)c(C(N)=O)cc2F)[C@H](C)N)cc1 [Example 2-338, 6-(((1R,2S)-2-amino-1-(4-methoxyphenyl)propyl)amino)-5-fluoro-2-((6-methyl-5-(2H-1,2,3-triazol-2-yl)pyridin-3-yl)amino)nicotinamide] | – | < 1000 | 10 to 50
CSCC[C@@H](Nc1nc(Nc2cnc(C)c(-n3nccn3)c2)c(C(N)=O)cc1F)[C@H](C)N [Example 2-343, 6-(((3R,4S)-4-amino-1-(methylthio)pentan-3-yl)amino)-5-fluoro-2-((6-methyl-5-(2H-1,2,3-triazol-2-yl)pyridin-3-yl)amino)nicotinamide] | – | 1000 to 3000 | 10 to 50
CCC[C@@H](Nc1nc(Nc2ccc3c(c2)c(OC(F)F)nn3C)c(C(N)=O)cc1F)[C@H](C)N [Example 2-349, 6-(((2S,3R)-2-aminohexan-3-yl)amino)-2-((3-(difluoromethoxy)-1-methyl-1H-indazol-5-yl)amino)-5-fluoronicotinamide] | – | 1000 to 3000 | < 10
NC[C@@H](Cc1ccccc1)Nc1nc(Nc2cnc(N3CCOCC3)c(F)c2)c(C(N)=O)cc1F [Example 2-365, (R)-6-((1-amino-3-phenylpropan-2-yl)amino)-5-fluoro-2-((5-fluoro-6-morpholinopyridin-3-yl)amino)nicotinamide] | – | < 1000 | 50 to 100
Cc1ncc(Nc2nc(N[C@@H]([C@H](C)N)[C@H]3CC3(C)C)c(F)cc2C(N)=O)cc1-n1nccn1 [Example 2-380, 6-(((1R,2S)-2-amino-1-((S)-2,2-dimethylcyclopropyl)propyl)amino)-5-fluoro-2-((6-methyl-5-(2H-1,2,3-triazol-2-yl)pyridin-3-yl)amino)nicotinamide] | – | 1000 to 3000 | < 10
NC(=O)c1cc(F)c(N[C@@H]2CCCC[C@@H]2N)nc1Nc1cncc2c1cnn2CC(F)F [Example 2-393, 6-(((1R,2S)-2-aminocyclohexyl)amino)-2-((1-(2,2-difluoroethyl)-1H-pyrazolo[3,4-c]pyridin-4-yl)amino)-5-fluoronicotinamide] | – | 1000 to 3000 | < 10
NC(=O)c1cc(F)c(N[C@@H]2CCOC[C@@H]2N)nc1Nc1cncc2c1cnn2CC(F)F [Example 2-394, 6-(((3R,4R)-3-aminotetrahydro-2H-pyran-4-yl)amino)-2-((1-(2,2-difluoroethyl)-1H-pyrazolo[3,4-c]pyridin-4-yl)amino)-5-fluoronicotinamide] | – | 3000 to 6000 | < 10
CCC[C@@H](Nc1nc(Nc2cncc3c2cnn3CC(F)F)c(C(N)=O)cc1F)[C@H](C)N [Example 2-397, 6-(((2S,3R)-2-aminohexan-3-yl)amino)-2-((1-(2,2-difluoroethyl)-1H-pyrazolo[3,4-c]pyridin-4-yl)amino)-5-fluoronicotinamide] | – | 1000 to 3000 | < 10
CCCC[C@@H](Nc1nc(Nc2cncc3c2cnn3CC(F)F)c(C(N)=O)cc1F)[C@H](C)N [Example 2-399, 6-(((2S,3R)-2-aminoheptan-3-yl)amino)-2-((1-(2,2-difluoroethyl)-1H-pyrazolo[3,4-c]pyridin-4-yl)amino)-5-fluoronicotinamide] | – | 1000 to 3000 | < 10
CCn1ncc2c(Nc3nc(N[C@@H](CN)CC(C)C)c(F)cc3C(N)=O)cncc21 [Example 2-405, (R)-6-((1-amino-4-methylpentan-2-yl)amino)-2-((1-ethyl-1H-pyrazolo[3,4-c]pyridin-4-yl)amino)-5-fluoronicotinamide] | – | 1000 to 3000 | < 10
COCCOc1cc(Nc2nc(N[C@H](Cc3ccccc3)[C@H](C)N)c(F)cc2C(N)=O)ccn1 [Example 2-427, 6-(((2R,3S)-3-amino-1-phenylbutan-2-yl)amino)-5-fluoro-2-((2-(2-methoxyethoxy)pyridin-4-yl)amino)nicotinamide] | – | 1000 to 3000 | 10 to 50

— patent US9051310B2, “Nicotinamide derivative or salt thereof” (FUJIFILM Corporation, priority 2011, dated 2015)
